EP4755881A1 (Wuhan Createrna Science and Technology Co., Ltd., priority 2023, dated 2025)
Read-outs that look alike come from different tables or passages of the source. Blank lines part the entries; values can stand above or below the compound they belong to.

Assays:
[1] = target: T1, LPAR1 receptor (Homo sapiens, UniProt Q92633); assay: LPAR1 in vitro biological activity evaluation 2: HTRF cAMP kit (LANCE Ultra cAMP Kit) assay in CHO stable transfected cell line expressing the LPAR1 receptor; assay type: cell-based; conditions: Table 2, read-out: LPAR1 inhibitory activity IC50
T1 construct: expressed in transfected cells
T1 sequence (Q92633 whole entry): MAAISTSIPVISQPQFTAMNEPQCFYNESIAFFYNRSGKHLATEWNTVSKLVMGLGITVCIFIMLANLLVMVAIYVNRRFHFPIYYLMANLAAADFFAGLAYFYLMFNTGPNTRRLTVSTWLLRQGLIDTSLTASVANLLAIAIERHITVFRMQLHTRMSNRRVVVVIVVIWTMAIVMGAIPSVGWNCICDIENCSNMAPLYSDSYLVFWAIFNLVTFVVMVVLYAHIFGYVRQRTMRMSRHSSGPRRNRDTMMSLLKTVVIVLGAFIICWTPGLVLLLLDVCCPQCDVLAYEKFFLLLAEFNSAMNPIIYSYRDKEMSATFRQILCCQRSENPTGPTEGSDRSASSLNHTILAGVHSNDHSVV
Description: The inhibitory effects of the compounds of the present disclosure on the LPAR1 receptor were determined using a Chinese hamster ovary (CHO) stable transfected cell line expressing the LPAR1 receptor, through the HTRF cAMP kit (LANCE® Ultra cAMP Kit).
The CHO cell line expressing the LPAR1 receptor was cultured in F-12 medium (Gibco, 117650054) containing 10% fetal bovine serum (FBS, Avantor, 76294-180) and 0.2 mg/mL hygromycin B (Solarbio, H8080-1g) at 37°C with 5% CO2. Cell passage, recovery, and cryopreservation were performed according to conventional methods. The stable transfected cell line was cultured to 80% confluence, digested with trypsin to collect cells, counted, and then seeded at 5 µL/well in a 384-well plate (500 cells/5 µL). The 1× Stimulation Buffer was prepared according to the instructions of the kit (LANCE® Ultra cAMP Kit). 1 µL of the test compound solution (diluted to 10× with 1× Stimulation Buffer) was added to the corresponding experimental wells, followed by centrifugation and incubation at 37°C for 10 minutes. […] 5 µL/well of Eu-cAMP (diluted with Detection buffer) was added to the corresponding experimental wells. 5 µL/well of ULight™-anti-cAMP antibody (diluted with Detection buffer) was added to the corresponding experimental wells, followed by centrifugation and incubation at room temperature for 1 hour. After the incubation was completed, the readings at 665 nm and 620 nm under 330 nm excitation were detected using the HTS high-throughput drug screening multifunctional microplate reader (BMG, PHERAstar FSX). The IC50 values were calculated by fitting nonlinear regression (dose response - variable slope) using GraphPad Prism software.

[2] = Pharmacokinetic study in rats (oral gavage and tail vein injection, plasma LC-MS/MS); assay type: in vivo; conditions: rat; for Cmax: read-out: Cmax
Procedure, shortened: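 Male SD rats (200–250 g) are dosed orally (fasted; 5% DMSO/5% ethanol/60% PEG400/30% saline) or by tail-vein injection (10% ethanol/20% water/70% PEG400). Plasma sampled up to 24 h is analysed by LC-MS/MS. Non-compartmental analysis yields Cmax, C0, Tmax, AUC and T1/2.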

[3] = target: hLPAR1 (human lysophosphatidic acid receptor 1, Accession No.: NM_001401.4) (Homo sapiens, UniProt Q92633); assay: cell-based; conditions: FLIPR method, CHO-K1 cells overexpressing hLPAR1
Sequence of hLPAR1 (human lysophosphatidic acid receptor 1, Accession No.: NM_001401.4) (Q92633 whole entry): as above
Procedure, shortened: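 Antagonist mode in CHO-K1 cells stably expressing hLPAR1, Fluo-4 loaded; compound preincubated 30 min at room temperature before 1 µM oleoyl-LPA (final) challenge.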

[4] = Table 1, read-out: LPAR1 inhibitory activity IC50

SMILES: CCC[C@@H](C)OC(=O)Nc1c(-c2ccc(C#CC3(CC(=O)O)CC(OC)C3)c(C)n2)nnn1C (single isomer, unassigned) [278-A]
IC50 [1]: 46.2 nM

SMILES: CCC[C@@H](C)OC(=O)Nc1c(-c2ccc(C#CC3(CC(=O)O)CC(OC)C3)c(C)n2)nnn1C (single isomer, unassigned) [278-B]
IC50 [1]: 56 nM

SMILES: Cc1nc(-c2nnn(C)c2COC(=O)N(C)CCC(C)(F)F)ccc1C#C[C@@H]1CCC[C@H]1C(=O)O (single isomer, unassigned) [282-A]
IC50 [1]: 87.6 nM

SMILES: CCCC(C)OC(=O)Nc1c(-c2ccc(C#CC3CCCC3C(=O)O)c(C)n2)nnn1C (single isomer, unassigned) [305-A]
IC50 [1]: 25.6 nM

SMILES: Cc1nc(-c2nnn(C)c2NC(=O)O[C@H](C)c2ccccc2Cl)ccc1C#C[C@@H]1C[C@H]1C(=O)O [compound 053]
IC50 [1]: 117 nM

SMILES: CCCN(C)C(=O)OCc1c(-c2ccc(C#CC3(CC(=O)O)CC3)c(C(F)(F)F)n2)nnn1C [compound 101]
IC50 [1]: 205 nM

SMILES: Cc1nc(-c2nnn(C)c2CNC(=O)OCc2ccccc2)ccc1C#CC1(CC(=O)O)CC1 [compound 215]
AUC(0-t) ([2]; SD rats, Iv, 1 mg/kg): 1200 to 3000 ng·h/mL
half-life ([2]; SD rats, Iv, 1 mg/kg): 5.03 h
Cmax ([2]; SD rats, Iv, 1 mg/kg): 800 to 5000 ng/mL
AUC(0-t) ([2]; SD rats, Po, 3 mg/kg): 5000 to 10000 ng·h/mL
half-life ([2]; SD rats, Po, 3 mg/kg): 4.49 h
Cmax ([2]; SD rats, Po, 3 mg/kg): 800 to 5000 ng/mL
IC50 ([3]; LPAR1 inhibitory activity IC50, Table 1): 43 nM

SMILES: CCc1nc(-c2nnn(C)c2NC(=O)O[C@H](C)C(F)(F)CC)ccc1C#CC1(CC(=O)O)CC1 [compound 233]
IC50 [1]: 163 nM

Further lines, results first:

IC50 [1]: 23.9 nM
SMILES: CCCCN(C)C(=O)OCc1c(-c2ccc(C#CC3(CC(=O)O)CC(F)(F)C3)c(C)n2)nnn1C [compound 109]

IC50 [1]: 19.6 nM
SMILES: CCCCN(C)C(=O)OCc1c(-c2ccc(C#CC3(CC(=O)O)CC(OC)C3)c(C)n2)nnn1C (stereo not shown) [compound 113]

IC50 [1]: 9.2 nM
SMILES: CCCCN(C)C(=O)OCc1c(-c2ccc(C#CC3(CC(=O)O)CC(OCC)C3)c(C)n2)nnn1C (stereo not shown) [compound 114]

IC50 [1]: 8.3 nM
SMILES: CCCN(C)C(=O)OCc1c(-c2ccc(C#CC3(CC(=O)O)CC4(CC4)C3)c(C)n2)nnn1C [compound 115]

IC50 [1]: 83.9 nM
SMILES: CCOc1ccnc(NCc2c(-c3ccc(C#CC4(CC(=O)O)CC4)c(C)n3)nnn2C)n1 [compound 118]

IC50 [1]: 44.1 nM
SMILES: CCC(F)(F)[C@@H](C)OC(=O)Nc1c(-c2ccc(C#CC3(CC(=O)O)CC3)c(C(F)(F)F)n2)nnn1C [compound 208, (R)-2-(1-((6-(5-((((3,3-difluoropentan-2-yl)oxy)carbonyl)amino)-1-methyl-1H-1,2,3-triazol-4-yl)-2-(trifluoromethyl)pyridin-3-yl)ethynyl)cyclopropyl)acetic acid]

half-life ([2]; male, SD, iv, 1 mg/kg): 7.01 h
half-life ([2]; male, SD, po, 3 mg/kg): 8.21 h
AUC(0-t) ([2]; male, SD rats, Iv, 1 mg/kg): 3000 to 5000 ng·h/mL
Cmax ([2]; male, SD rats, Iv, 1 mg/kg): 800 to 5000 ng/mL
AUC(0-t) ([2]; male, SD rats, Po, 3 mg/kg): 10000 to 20000 ng·h/mL
Cmax ([2]; male, SD rats, Po, 3 mg/kg): 800 to 5000 ng/mL
IC50 [3, 4]: 9.4 nM
SMILES: Cc1nc(-c2nnn(C)c2CNc2nccc(C3CCC3)n2)ccc1C#CC1(CC(=O)O)CC1 [compound 214, 2-(1-((6-(5-(((4-cyclobutylpyrimidin-2-yl)amino)methyl)-1-methyl-1H-1,2,3-triazol-4-yl)-2-methylpyridin-3-yl)ethynyl)cyclopropyl)acetic acid]

half-life ([2]; male, SD, iv, 1 mg/kg): 4.9 h
half-life ([2]; male, SD, po, 3 mg/kg): 4.44 h
AUC(0-t) ([2]; male, SD rats, Iv, 1 mg/kg): 1200 to 3000 ng·h/mL
Cmax ([2]; male, SD rats, Iv, 1 mg/kg): 5000 to 8000 ng/mL
AUC(0-t) ([2]; male, SD rats, Po, 3 mg/kg): 5000 to 10000 ng·h/mL
Cmax ([2]; male, SD rats, Po, 3 mg/kg): 800 to 5000 ng/mL
IC50 [3, 4]: 23.3 nM
SMILES: Cc1nc(-c2nnn(C)c2COc2nccc(C3CC(F)(F)C3)n2)ccc1C#CC1(CC(=O)O)CC1 [compound 216, 2-(1-((6-(5-(((4-(3,3-difluorocyclobutyl)pyrimidin-2-yl)oxy)methyl)-1-methyl-1H-1,2,3-triazol-4-yl)-2-methylpyridin-3-yl)ethynyl)cyclopropyl)acetic acid]

IC50 [1]: 72.2 nM
SMILES: Cc1nc(-c2nnn(C)c2NC(=O)O[C@H](C)CC2CC2)ccc1C#C[C@@H]1CC[C@H]1C(=O)O [compound 248]

half-life ([2]; male, SD, iv, 1 mg/kg): 4.06 h
half-life ([2]; male, SD, po, 3 mg/kg): 3.45 h
AUC(0-t) ([2]; male, SD rats, Iv, 1 mg/kg): 1200 to 3000 ng·h/mL
Cmax ([2]; male, SD rats, Iv, 1 mg/kg): 5000 to 8000 ng/mL
AUC(0-t) ([2]; male, SD rats, Po, 3 mg/kg): 5000 to 10000 ng·h/mL
Cmax ([2]; male, SD rats, Po, 3 mg/kg): 800 to 5000 ng/mL
IC50 [3, 4]: 72.3 nM
SMILES: Cc1nc(-c2nnn(C)c2CNC(=O)OCCC(C)C)ccc1C#CC1(CC(=O)O)CC1 [compound 253]

half-life ([2]; male, SD, iv, 1 mg/kg): 7.04 h
half-life ([2]; male, SD, po, 1 mg/kg): 5.13 h
AUC(0-t) ([2]; male, SD rats, Iv, 1 mg/kg): 3000 to 5000 ng·h/mL
Cmax ([2]; male, SD rats, Iv, 1 mg/kg): 5000 to 8000 ng/mL
AUC(0-t) ([2]; male, SD rats, Po, 1 mg/kg): 3000 to 5000 ng·h/mL
Cmax ([2]; male, SD rats, Po, 1 mg/kg): 200 to 800 ng/mL
IC50 [3, 4]: 63.9 nM
SMILES: Cc1nc(-c2nnn(C)c2CNc2nccc(C3CC(F)(F)C3)n2)ccc1C#CC1(CC(=O)O)CC1 [compound 254]
